Assay results reported in the NIST ThermoML archive (doi:10.1016/j.jct.2006.04.005).
Numbers after ± are expanded uncertainties.

Conditions: 303.15 K, 101 kPa, Liquid; for viscosity: Capillary tube (Ostwald / Ubbelohde) method; for mass density: Pycnometric method

speed of sound	SMILES	viscosity	mass density
	Cc1ccccc1[N+](=O)[O-] [2-nitrotoluene]	1.911 ± 0.049 mPa·s	1153.24 ± 7.4 kg/m3
1280 ± 8 m/s	Cc1cccc(Cl)c1 [3-chlorotoluene]	0.78 ± 0.02 mPa·s	1065.21 ± 6.4 kg/m3
	Cc1cccc([N+](=O)[O-])c1 [3-nitrotoluene]	1.777 ± 0.046 mPa·s	1147.67 ± 7.4 kg/m3
1271 ± 8 m/s	Cc1ccc(Cl)cc1 [4-chlorotoluene]	0.9 ± 0.023 mPa·s	1060.54 ± 6.3 kg/m3

SMILES	speed of sound	viscosity	mass density
C[S+](C)[O-] [dimethyl sulfoxide]	1470 ± 9 m/s	1.803 ± 0.046 mPa·s	1091.35 ± 6.7 kg/m3
